Source: US8440670B2, “Pyridopyrazindione derivative and its use as an antiulcer drug” (Innovative Pharmacology Research OOO (IPHAR), priority 2010, dated 2013)
Like-named read-outs stand apart in the source and are kept apart here.

Columns and labels:
[1] = type: in vivo
From the text: Studying the Toxicity (LD50) of Studied Compounds Following Single Administration

[2] = target: T1, H,K-ATPase of rabbit gastric mucosa (Oryctolagus cuniculus, UniProt P27112); experiment: Action on enzyme activity of H,K-ATPase of rabbit gastric mucosa (inorganic phosphate from ATP hydrolysis); type: biochemical; details: for IC50: read-out: I50, inhibition of H,K-ATPase
T1 construct: a white layer was seen on the borderline of 4% and 12% Ficoll that was a microsome fraction, enriched with H,K-ATPase; from tissue; host or cells: rabbit gastric (stomach) mucosa microsomes
Procedure: Microsome preparation, enriched with H+, K+-ATPase, was produced from the rabbit stomach mucosa using a method proposed by Farley and Faller.
Gastric mucosa was produced from a decapitated rabbit. All operations were carried out in ice. The stomach was cut at the greatest curve line, washed and scrubbed. Obtained mucosa was frozen and kept at −80° C. temperature.
To obtain a microsome preparation enriched with H,K-ATPase, gastric mucosa was defrozen and homogenized in extraction medium (0.25 mol sucrose, 5 mmol PIPES, 20 mmol Tris (THAM), ph 7.4) by a Polytron-class homogenizer (max rotations 30/sec). Mass ratio of tissue to extraction medium—1:20.
The homogenate was then centrifuged for 10 min at 10000 g. The sediment was discarded and supernatant was them centrifuged for 1 hour at 100000 g. The produced sediment was re-suspended in extraction medium (using the minimal volume necessary for re-suspension). The suspension was layered above Ficoll 400, prepared in the extraction medium: 12% Ficoll solution, 4% Ficoll solution. It was further centrifuged for 180 min at 100000 g. After centrifuging, a white layer was seen on the borderline of 4% and 12% Ficoll that was a microsome fraction, enriched with H,K-ATPase. The fraction was collected, divided into aliquots and kept at −80° C.
The effect was measured by the growth of inorganic phosphate that is produced during ATP hydrolysis. The concentration was measured using Ratbun and Betlah method. The incubation medium contained: 30 mmol imidazole, ph 7.4, 3 mmol MgCl2, 130 mmol NaCl, 20 mmol KCl, 3 mmol ATP, 2 mmol ouabain, 0.1 mmol EGTA, 2.25 μmol valinomycin, 5 mmol NaN3, 5 μmol of CCCP (Carbonyl cyanide m-chlorophenyl hydrazone).
Incubation medium and defrozen and homogenized microsome fraction were added into incubation sample. The sample was incubated for 20 min at 37° C., then the reaction was stopped by a cold stop-solution (3 mol sodium acetate, 3.7% formaldehyde, pH 4.3).
To evaluate the content of phosphate, produced during enzymatic hydrolysis of ATP, 2% ammonium molybdate solution and tin chloride solution (3 mg/ml) was into the sample. After the appearance of blue color, after 15 minutes, the samples were studied by colorimetry using wavelength of 650 nm
The H,K-ATPase activity was determined as activity inhibited by 0.1 mmol SCH-28080. […] The concentration of the studied compound was varied in range of 10^−8 to 10^−4 mol.
Possible competition between compound I and potassium ions was studied. To achieve this, the relation of H,K-ATPase and KCl concentration was studied, and then the inhibitory action of compound I on this enzyme in saturated (20 μmol) and unsaturated (2 μmol) concentrations of KCl was studied.

[3] = tested on: stimulated gastric acid secretion; experiment: Gastric secretion stimulated by histamine, pentagastrin and 1-aminopyrene; type: in vivo, rats; set-up: inhibition of 1-aminopyrene-induced secretion: concentration or dose not given beside the values
Procedure: 2.2. Studying gastric secretion stimulated by histamine, pentagastrin and 1-aminopyrene.
The study was conducted using male rats weighting 180-200 g. The animals were deprived of food for 24 hours, water access was not limited. Before putting a ligature on the pylorus, one group of animals was administered histamine (2.5 mg/kg) subcutaneously, second group was administered pentagastrin ([…]) subcutaneously, third group was administered 1-aminopyrene 1 mg/kg. The studied compound was administered in 100 mg/kg dose as water suspension, with the addition of Tween-80,
1 and 3 hours before the ligature of pylorus. Control animals were given distilled water with the addition of Tween-80. Omeprazole in 50 mg/kg dose and famotidine in 25 and 50 mg/kg doses were used as the drugs of comparison. 4 hours after the operation stomach contents were studied: secretion volume per 100 g of animal mass, gastric acid pH, free hydrochloric acid and general acidity of gastric acid.

[4] = tested on: basal gastric acid secretion; experiment: Influence on basal secretion in rats (pylorus ligature); type: in vivo
Procedure: 2.1. Studying the influence of the compound on basal secretion in rats.
The study was conducted using male rats weighting 180-200 g. The animals were deprived of food for 24 hours, water access was not limited. Using ether anesthesia their abdomens were opened and a ligature put on the pylorus. […] The studied compound was administered in 100 mg/kg dose as water suspension, with the addition of Tween-80, 60 minutes before the ligature of pylorus. Control animals were given distilled water with the addition of Tween-80. Omeprazole in 50 mg/kg dose and famotidine in 25 and 50 mg/kg doses were used as drugs of comparison.

[5] = tested on: intestinal peristalsis; experiment: Intestinal peristalsis study (activated charcoal); type: in vivo; details: mice, given 60 minutes before activated charcoal
Procedure: 3.1. Studying intestinal peristalsis.
The studied compounds were administered to male mice (body weight 22-24 g) by a tube into the stomach 60 minutes before the administration of activated charcoal (0.3 ml of 10% suspension into the stomach). After 2 hours the animals were sacrificed by CO2 and the length of small intestine filled with charcoal was measured in cm. Control group animals were administered 0.3 ml of water, cerucal in 25 mg/kg dose was chosen as the drug of comparison.

[6] = target: H,K-ATPase (Homo sapiens, UniProt P20648); details: K+-competitive; read-out: Ki (inhibition constant); cited from earlier work
H,K-ATPase, sequence (P20648 whole entry): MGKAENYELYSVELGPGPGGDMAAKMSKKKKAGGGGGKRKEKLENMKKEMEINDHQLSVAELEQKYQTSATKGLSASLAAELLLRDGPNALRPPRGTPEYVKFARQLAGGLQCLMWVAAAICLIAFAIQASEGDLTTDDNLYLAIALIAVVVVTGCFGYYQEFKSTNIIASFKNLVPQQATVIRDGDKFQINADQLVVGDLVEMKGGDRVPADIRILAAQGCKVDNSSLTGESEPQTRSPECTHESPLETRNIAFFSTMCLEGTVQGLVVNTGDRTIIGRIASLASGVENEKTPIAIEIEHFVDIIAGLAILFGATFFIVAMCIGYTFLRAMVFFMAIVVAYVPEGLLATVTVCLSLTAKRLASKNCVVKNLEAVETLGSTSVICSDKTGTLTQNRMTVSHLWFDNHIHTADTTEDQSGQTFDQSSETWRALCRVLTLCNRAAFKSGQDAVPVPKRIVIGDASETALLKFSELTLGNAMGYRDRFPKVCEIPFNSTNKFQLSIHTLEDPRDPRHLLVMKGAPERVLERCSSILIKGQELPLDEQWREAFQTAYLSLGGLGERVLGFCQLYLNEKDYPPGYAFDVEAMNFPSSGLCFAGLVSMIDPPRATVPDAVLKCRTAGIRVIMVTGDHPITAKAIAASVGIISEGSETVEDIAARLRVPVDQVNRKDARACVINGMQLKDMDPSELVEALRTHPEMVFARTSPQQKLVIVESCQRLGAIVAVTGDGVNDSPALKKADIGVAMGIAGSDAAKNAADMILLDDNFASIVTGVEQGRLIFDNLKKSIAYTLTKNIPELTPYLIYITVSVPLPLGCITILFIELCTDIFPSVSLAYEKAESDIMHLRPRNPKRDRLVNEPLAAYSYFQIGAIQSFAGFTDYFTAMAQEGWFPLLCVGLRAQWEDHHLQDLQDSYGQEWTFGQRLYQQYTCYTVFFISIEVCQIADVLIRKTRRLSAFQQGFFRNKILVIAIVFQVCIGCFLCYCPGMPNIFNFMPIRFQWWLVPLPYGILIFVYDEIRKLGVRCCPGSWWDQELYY
H,K-ATPase, sequence (P51164 whole entry partner): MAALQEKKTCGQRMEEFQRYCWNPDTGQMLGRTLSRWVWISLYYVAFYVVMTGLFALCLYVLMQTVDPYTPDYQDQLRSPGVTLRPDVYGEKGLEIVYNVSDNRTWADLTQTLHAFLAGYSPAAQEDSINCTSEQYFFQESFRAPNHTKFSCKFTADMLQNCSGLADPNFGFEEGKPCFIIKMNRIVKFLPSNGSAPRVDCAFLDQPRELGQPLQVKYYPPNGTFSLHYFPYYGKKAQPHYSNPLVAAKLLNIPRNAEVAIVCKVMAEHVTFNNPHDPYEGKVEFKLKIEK

T1 sequence (P27112 whole entry): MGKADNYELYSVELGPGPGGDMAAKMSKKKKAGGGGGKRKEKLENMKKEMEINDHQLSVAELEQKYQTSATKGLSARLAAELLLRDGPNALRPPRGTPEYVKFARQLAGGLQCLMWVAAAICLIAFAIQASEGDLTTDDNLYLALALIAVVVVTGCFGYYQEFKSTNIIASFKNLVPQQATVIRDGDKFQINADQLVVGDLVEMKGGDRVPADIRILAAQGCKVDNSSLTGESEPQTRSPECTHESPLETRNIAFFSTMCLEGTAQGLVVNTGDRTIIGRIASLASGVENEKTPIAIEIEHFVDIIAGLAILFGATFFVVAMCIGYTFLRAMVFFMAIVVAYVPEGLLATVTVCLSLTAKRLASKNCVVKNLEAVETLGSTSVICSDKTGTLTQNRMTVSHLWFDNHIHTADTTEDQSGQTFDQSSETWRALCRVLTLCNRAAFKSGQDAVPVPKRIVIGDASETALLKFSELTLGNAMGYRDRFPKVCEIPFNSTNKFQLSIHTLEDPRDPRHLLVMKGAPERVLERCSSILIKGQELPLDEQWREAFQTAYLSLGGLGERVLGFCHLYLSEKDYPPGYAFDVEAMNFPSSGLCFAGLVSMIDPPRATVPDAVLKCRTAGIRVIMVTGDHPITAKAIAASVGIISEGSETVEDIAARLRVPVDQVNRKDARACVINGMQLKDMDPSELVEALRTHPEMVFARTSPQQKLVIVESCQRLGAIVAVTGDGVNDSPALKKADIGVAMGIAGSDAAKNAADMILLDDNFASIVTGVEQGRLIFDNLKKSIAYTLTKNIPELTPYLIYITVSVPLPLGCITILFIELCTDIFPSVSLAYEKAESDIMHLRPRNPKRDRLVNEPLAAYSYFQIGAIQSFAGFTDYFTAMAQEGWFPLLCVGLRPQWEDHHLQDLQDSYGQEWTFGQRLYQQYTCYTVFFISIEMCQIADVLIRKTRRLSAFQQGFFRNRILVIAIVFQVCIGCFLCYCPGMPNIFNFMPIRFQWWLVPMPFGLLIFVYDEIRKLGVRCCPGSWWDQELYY
T1 sequence (P18597 whole entry partner): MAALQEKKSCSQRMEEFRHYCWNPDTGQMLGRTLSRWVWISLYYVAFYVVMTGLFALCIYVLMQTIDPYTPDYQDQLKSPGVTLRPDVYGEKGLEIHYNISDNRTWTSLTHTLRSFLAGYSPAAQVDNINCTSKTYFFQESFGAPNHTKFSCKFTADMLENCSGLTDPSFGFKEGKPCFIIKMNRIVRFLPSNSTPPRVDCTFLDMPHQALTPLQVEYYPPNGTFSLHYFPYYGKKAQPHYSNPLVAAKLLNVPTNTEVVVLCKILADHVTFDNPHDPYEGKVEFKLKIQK

Compound | inhibition of histamine-induced secretion ([3]; after 3 hours) | inhibition of histamine-induced secretion ([3]; one hour after administration) | inhibition of 1-aminopyrene-induced secretion ([3]; time not stated) | inhibition of pentagastrin-induced secretion ([3]; time not stated) | slowing of intestinal peristalsis [5] | inhibition of basal secretion ([4]; after three hours) | inhibition of basal secretion ([4]; one hour after administration) | also measured
CCOc1ccc(CCN2CC(=O)N3CCCC(C4=CC(=O)C=CC4O)=C3C2=O)cc1 (centres unmarked) [Compound I, 9-(quinonil-2)-2-p-ethoxyphenylethyl-4,5,6,7,8,9,10,11-octahydropyrido[1,2-a]pyrazindione-1,4] | 57% | 40% | 50% | about 54% | does not influence peristalsis |  |  | general toxicity ([1]; in vivo): low-toxic; IC50 ([2]; 2 μmol KCl (unsaturated)): 10 µM; IC50 ([2]; 20 μmol KCl (saturated)): 1 µM; competition with K+ ions ([2]; 2 and 20 μmol KCl): does not compete with K+ ions; reversibility of effect on H,K-ATPase ([2]; dilution of enzyme-inhibitor complex): reversible; inhibition of basal gastric acid secretion level ([4]; 100 mg/kg, time not stated): does not inhibit basal gastric acid secretion level
CNc1nc2c(C)cccc2c2c1CCN2c1ccccc1C [SK&F96356] |  |  |  |  |  |  |  | Ki [6]: 0.07 µM
NC(N)=Nc1nc(CSCCC(N)=NS(N)(=O)=O)cs1 [famotidine] | 95% | 90% |  | 40% | does not influence peristalsis | 80% | 56% | inhibition of 1-aminopyrene-induced secretion ([3]; after 1 hour): 36%; inhibition of 1-aminopyrene-induced secretion ([3]; after 3 hours): 40%
COc1ccc2[nH]c([S+]([O-])Cc3ncc(C)c(OC)c3C)nc2c1 (centres unmarked) [omeprazole] | 80% | 70% | about 90% | about 90% | 35% | 40% | 25% | general toxicity ([1]; single administration): low-toxic
SCH-28080 |  |  |  |  |  |  |  | inhibition of H,K-ATPase activity ([2]; 0.1 mmol inhibitor): about 30%
